What all share (type): physicochemical
The nature of data set [1]: Comparative thermal stability study of Form A, Form B and amorphous MRTX849 Drug Substance. The following applies: for change in appearance on storage: two weeks at 60° C., two months at 25° C./60% RH and 40° C./75% RH. Here is the method:
(§1) 40° C./75% RH and 60° C. in loosely capped, foil-wrapped small glass vials. Data was obtained for up to two weeks for samples stored at 60° C. and up to two months for samples stored at 25° C./60% RH and 40° C./75% RH. In addition, data was generated from photostability study performed on all three lots as a part of the protocol.

Data set [2] in a line: Dynamic vapor sorption, 5% to 95% RH. The procedure:
Vapor Sorption isotherms were obtained using a Surface Measurement System (SMS) DVS Intrinsic moisture sorption analyzer, controlled by DVS Intrinsic Control software. Samples were not dried prior to analysis. Sorption and desorption data were collected over a range of 5%-95% relative humidity (RH) at 10% RH increments under a nitrogen purge. The equilibrium criterion used for analysis was less than 0.0100% weight change in 5 minutes with a maximum equilibration time of 3 hours.
Vapor sorption data were collected on a Surface Measurement System DVS Intrinsic instrument. Samples were not dried prior to analysis. Sorption and desorption data were collected over a range from 5% to 95% RH at 10% RH increments under a nitrogen purge. The equilibrium criterion used for analysis was less than 0.0100% weight change in 5 minutes with a maximum equilibration time of 3 hours.

Data set [3] can be described thus: Photostability study (1/2 ICH conditions). Here is the method:
as §1

A short description of data set [4]: Dynamic vapor sorption isotherm, 25° C., 0-90% RH. The following applies: for weight gain (DVS): sorption. Here is the method:
Sorption isotherms of crystalline Form A were obtained using a SMS GVS Intrinsic moisture sorption analyzer, controlled by GVS Intrinsic Control software. The sample temperature was maintained at 25° C. by the instrument controls. The humidity was controlled by mixing streams of dry and wet nitrogen, with a total flow rate of 200 ml/min. The relative humidity was measured by a calibrated Rotronic probe (dynamic range of 1.0-100% RH), located near the sample. The weight change (mass relaxation) of the sample as a function of % RH was constantly monitored by a microbalance (accuracy ±0.005 mg).
The sample was loaded and unloaded at 40% RH and 25° C. (typical room conditions). A moisture sorption isotherm was performed as outlined below (2 scans per complete cycle). The standard isotherm was performed at 25° C. at 10% RH intervals over a 0-90% RH range. A double cycle (4 scans) was carried out. Data analysis was carried out within Microsoft Excel using the DVS Analysis Suite.
Sorption isotherms of crystalline Form B were obtained using a SMS DVS Intrinsic moisture sorption analyzer, controlled by DVS Intrinsic Control software. The sample temperature was maintained at 25° C. by the instrument controls. The humidity was controlled by mixing streams of dry and wet nitrogen, with a total flow rate of 200 ml/min. The relative humidity was measured by a calibrated Rotronic probe (dynamic range of 1.0-100% RH), located near the sample. The weight change, (mass relaxation) of the sample as a function of % RH was constantly monitored by a microbalance (accuracy ±0.005 mg).
Briefly, a sample of crystalline Form B was placed in a tared mesh stainless steel basket under ambient conditions. The sample was loaded and unloaded at 40% RH and 25° C. (typical room conditions). A moisture sorption isotherm was performed as outlined below (2 scans per complete cycle). The standard isotherm was performed at 25° C. at 10% RH intervals over a 0-90% RH range. A double cycle (4 scans) was carried out. Data analysis was carried out within Microsoft Excel using the DVS Analysis Suite.

The nature of data set [5]: 1 month stability of MRTX849 crystalline vs amorphous, HPLC evaluation after accelerated stress conditions.
Where [6] appears, read: 0.5 × ICH: Vis Stress at 600 klux-hrs, UV Stress at 100 W-hr/m^2.

Experimental findings from patent US12281113B2, “Crystalline forms of a KRas G12C inhibitor” (MIRATI THERAPEUTICS, INC., priority 2020, dated 2025) are described below.

Where “and” joins values, the source holds several entries; their conditions need not be identical. Equal values may be shown once.

`C=C(F)C(=O)N1CCN(c2nc(OC[C@@H]3CCCN3C)nc3c2CCN(c2cccc4cccc(Cl)c24)C3)C[C@@H]1CC#N` [Form B, 2-[(2S)-4-[7-(8-chloro-1-naphthyl)-2-[[(2S)-1-methylpyrrolidin-2-yl]methoxy]-6,8-dihydro-5H-pyrido[3,4-d]pyrimidin-4-yl]-1-(2-fluoroprop-2-enoyl)piperazin-2-yl]acetonitrile Form B]: the Appearance entry in data set [1] (1 Month 25° C./60% RH), in data set [1] (1 Month 40° C./75% RH), in data set [1] (1 Week 60° C.), in data set [1] (2 Months 25° C./60% RH), in data set [1] (2 Months 40° C./75% RH) and in data set [1] (2 Weeks 40° C./75% RH) was “Creamy” each time. The Appearance result in data set [1] (2 Weeks 60° C.) and in data set [1] (Initial T(0)) was “Creamy” in each case. For the same molecule, the Total impurities in data set [1] (1 Month 25° C./60% RH) is 0.23%; in data set [1] (1 Month 40° C./75% RH), 0.35%; in data set [1] (1 Week 60° C.) it was 0.31%; in data set [1] (2 Months 40° C./75% RH), 0.4% and 0.44%; in data set [1] (2 Weeks 40° C./75% RH), 0.37%; in data set [1] (2 Weeks 60° C.), 0.4%. Further, the Total impurities in data set [1] (Initial T(0)) stood at 0.3%. In addition, in data set [1], the “change in appearance on storage” value is “no change in appearance”. Moreover, the “water corresponding to DVS weight gain” value in data set [2] (5% to 95% RH) is reported as 1.3 mol water. Further, the “weight gain (DVS)” value in data set [2] (between 5% and 55% RH) is 0.2 wt %; in data set [4] (at 60% RH), “about 0.6%”; in data set [4] (at 70% RH) it was 2.9%; in data set [4] (at 90% RH) it was 2.5%. Besides, the “weight gain increase (DVS)” value in data set [2] (between 55% and 95% RH) came out at 3.5%. Besides, the Purity came to 98.41 in data set [3] (setting [6]), 99.74 in data set [3] (Control) and 99.75 in data set [3] (T(0)). In addition, the “weight change (DVS) on desorption” value is 0.4% in data set [4] (at 50% RH after desorption from 70% RH) and 2.2% in data set [4] (at 70% RH after desorption from 90% RH).
As for `C=C(F)C(=O)N1CCN(c2nc(OC[C@@H]3CCCN3C)nc3c2CCN(c2cccc4cccc(Cl)c24)C3)C[C@@H]1CC#N` [Form A, 2-[(2S)-4-[7-(8-chloro-1-naphthyl)-2-[[(2S)-1-methylpyrrolidin-2-yl]methoxy]-6,8-dihydro-5H-pyrido[3,4-d]pyrimidin-4-yl]-1-(2-fluoroprop-2-enoyl)piperazin-2-yl]acetonitrile Form A], the Appearance entry in data set [1] (1 Month 25° C./60% RH), in data set [1] (1 Month 40° C./75% RH), in data set [1] (1 Week 60° C.), in data set [1] (2 Months 25° C./60% RH), in data set [1] (2 Months 40° C./75% RH) and in data set [1] (2 Weeks 40° C./75% RH) was “Off-white” each time. Moreover, the Appearance entry in data set [1] (2 Weeks 60° C.) and in data set [1] (Initial T(0)) was “Off-white” each time. Also, the Total impurities in data set [1] (1 Month 25° C./60% RH) is 0.98%; in data set [1] (1 Month 40° C./75% RH) it was 1.04%; in data set [1] (1 Week 60° C.) it was 1.27%; in data set [1] (2 Months 25° C./60% RH) it was 1.06%; in data set [1] (2 Months 40° C./75% RH) it was 1.2% and 1.16%; in data set [1] (2 Weeks 40° C./75% RH) it was 1.07%. In addition, the Total impurities in data set [1] (2 Weeks 60° C.) was 1.4% and 1.43%. Moreover, the “change in appearance on storage” value in data set [1] was “no change in appearance”. Also, the “observed weight gain (DVS)” value in data set [2] (from 5% to 90% RH) is 0.4%. In addition, the Purity in data set [3] (setting [6]) is 96.74; in data set [3] (Control), 98.91; in data set [3] (T(0)), 98.86. Moreover, the “weight gain (DVS)” value in data set [4] (at 40% RH) is reported as “about 0.1%”; in data set [4] (at 90% RH), 0.6%.
With `C=C(F)C(=O)N1CCN(c2nc(OC[C@@H]3CCCN3C)nc3c2CCN(c2cccc4cccc(Cl)c24)C3)C[C@@H]1CC#N` [Amorphous, 2-[(2S)-4-[7-(8-chloro-1-naphthyl)-2-[[(2S)-1-methylpyrrolidin-2-yl]methoxy]-6,8-dihydro-5H-pyrido[3,4-d]pyrimidin-4-yl]-1-(2-fluoroprop-2-enoyl)piperazin-2-yl]acetonitrile], the Appearance result was “Tan Solid” in data set [1] (1 Month 25° C./60% RH); “Tan Solid” in data set [1] (1 Month 40° C./75% RH); “Brown Solid” in data set [1] (1 Week 60° C.); “Tan Solid” in data set [1] (2 Months 25° C./60% RH); “Light Brown” in data set [1] (2 Months 40° C./75% RH); “Tan Solid” in data set [1] (2 Weeks 40° C./75% RH). In addition, the results for the Appearance entry in data set [1] (2 Weeks 60° C.) and in data set [1] (Initial T(0)) were “Brown Solid” and “Tan Solid”, respectively. Moreover, the Total impurities in data set [1] (1 Month 25° C./60% RH) is 1.42%; in data set [1] (1 Month 40° C./75% RH) it was 2.36%; in data set [1] (1 Week 60° C.) it was 5.93%; in data set [1] (2 Months 25° C./60% RH) it was 1.86%; in data set [1] (2 Months 40° C./75% RH) it was 5.73%; in data set [1] (2 Months 40° C./75% RH, listed as amorphous material), 5.7%. Further, the Total impurities in data set [1] (2 Weeks 40° C./75% RH) was 1.95%; in data set [1] (2 Weeks 60° C.), 9.89%; in data set [1] (2 Weeks 60° C., listed as amorphous material), 9.9%; in data set [1] (Initial T(0), listed as amorphous material), 1.4%. Also, the “Color change on storage” value in data set [1] (60° C. condition and after two months at 40° C./75% RH) is recorded as “changed from tan to brown/light brown”. Also, the “Total impurities (%)” value in data set [5] (25° C./60% RH, 1 month) was found to be 2.21%; in data set [5] (40° C./75% RH, 1 month, open), 2.98%; in data set [5] (40° C./75% RH, 1 month, listed as MRTX849 amorphous) it was 3.28%. Further, the Purity in data set [3] (setting [6]) came to 91.25; in data set [3] (Control), 98.42; in data set [3] (T(0)), 98.59.
Consider `C=C(F)C(=O)N1CCN(c2nc(OC[C@@H]3CCCN3C)nc3c2CCN(c2cccc4cccc(Cl)c24)C3)C[C@@H]1CC#N` [MRTX849 crystalline, 2-[(2S)-4-[7-(8-chloro-1-naphthyl)-2-[[(2S)-1-methylpyrrolidin-2-yl]methoxy]-6,8-dihydro-5H-pyrido[3,4-d]pyrimidin-4-yl]-1-(2-fluoroprop-2-enoyl)piperazin-2-yl]acetonitrile], for which the “Total impurities (%)” value in data set [5] (40° C./75% RH, 1 month) was determined as 0.77%.
On to `C=C(F)C(=O)N1CCN(c2nc(OC[C@@H]3CCCN3C)nc3c2CCN(c2cccc4cccc(Cl)c24)C3)C[C@@H]1CC#N` [Form E, 2-[(2S)-4-[7-(8-chloro-1-naphthyl)-2-[[(2S)-1-methylpyrrolidin-2-yl]methoxy]-6,8-dihydro-5H-pyrido[3,4-d]pyrimidin-4-yl]-1-(2-fluoroprop-2-enoyl)piperazin-2-yl]acetonitrile Form E], for which the “gradual weight gain (DVS)” value in data set [2] (between 5% to 96% RH) is recorded as 1.2%.
Turning to `C=C(F)C(=O)N1CCN(c2nc(OC[C@@H]3CCCN3C)nc3c2CCN(c2cccc4cccc(Cl)c24)C3)C[C@@H]1CC#N` [API standard], in data set [5] (API standard), the “Total impurities (%)” value was 0.71%.
